Here are results for seven sequences from PMC5742231 (Frontiers in Chemistry, 2017).

Test [1] has as its system Bacteriophage ΔTOX:GFP (ϕΔTOX:GFP). Format: cell-based.
Test [2] relates to different bacterial strains. The settings on record: cited from earlier work.
Another test deals with S. aureus. The settings on record: cited from earlier work.

In test [1], RIVQRIKKWLLKWKKLGY [Peptide 5] registered a phages inactivated of around 100%.

As for RIVQRILKWLKKWYKLGK [Peptide 8], the phages inactivated in test [1] is listed as around 100%.

As to RIVQRIAKWAKKWYKAGK [Peptide 8.1], the “bacteriophage inactivation activity (in words)” value in test [1] is “lowest inactivation activity”.

On to GLLRKWGKKWKEFLRRVWK [Peptide 6.2], for which, in test [1], the phages inactivated is on record as around 100% and the “shape of phage neutralizing activity vs. concentration curve” value is “bell curve shaped behavior”.

GLLKKWLKKWKEFKRIVGY [Peptide 2]: in test [1], the “bacteriophage inactivation activity (in words)” value is “lowest inactivation activity” and the “shape of phage neutralizing activity vs. concentration curve” value was “bell curve shaped behavior”.

For the sequence “MVVFSVPKFKSTVAKLLSSA [Random peptide, reference compound]”, the “bacteriophage inactivation activity (in words)” value in test [1] is “no inactivation activity”. Moreover, the antimicrobial activity entry in test [2] is “no antimicrobial activity”.

“ILRWPWWPWRRK [Omiganan, reference compound]”: the “bacteriophage inactivation activity (in words)” value in test [1] is given as “no inactivation activity”. Moreover, the “antimicrobial activity against S. aureus” value in the test with S. aureus is given as “activity against S. aureus”.
